Reference: ChEMBL document CHEMBL3997792, “Identification of the First Selective Activin Receptor-Like Kinase 1 Inhibitor, a Reversible Version of L-783277” (J Med Chem, 2017)
The source made the active and inactive calls. The calls are words filed in the database; no cut-off is given here.

Experiments:
[1] = biological target: T1, Activin receptor type-1-like (Homo sapiens, UniProt P37023); test: Inhibition of human ALK1 using casein as substrate in presence of [gamma-33P]-ATP by scintillation counting method
T1 sequence (P37023 whole entry): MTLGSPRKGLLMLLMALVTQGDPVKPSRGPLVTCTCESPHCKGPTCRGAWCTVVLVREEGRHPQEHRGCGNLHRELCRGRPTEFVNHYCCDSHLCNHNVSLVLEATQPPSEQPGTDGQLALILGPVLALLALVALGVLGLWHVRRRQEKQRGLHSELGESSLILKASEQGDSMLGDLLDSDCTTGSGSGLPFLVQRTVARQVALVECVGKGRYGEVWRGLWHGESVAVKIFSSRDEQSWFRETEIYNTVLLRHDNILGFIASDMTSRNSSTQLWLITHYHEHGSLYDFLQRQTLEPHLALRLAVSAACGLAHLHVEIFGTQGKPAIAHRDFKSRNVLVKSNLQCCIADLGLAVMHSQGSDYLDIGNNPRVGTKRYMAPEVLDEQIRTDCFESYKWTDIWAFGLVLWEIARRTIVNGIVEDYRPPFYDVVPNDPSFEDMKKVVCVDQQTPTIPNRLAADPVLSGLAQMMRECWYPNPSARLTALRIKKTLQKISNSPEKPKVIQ

[2] = biological target: T2, Activin receptor type-1-like (Mus musculus) (UniProt Q61288); test: Inhibition of BMP9-stimulated ALK1 in mouse C2C12 cells assessed as reduction in Smad1/5 phosphorylation at 10 uM pretreated for 2 hrs followed by BMP9-stimulation after 30 mins by western blot analysis relative to control; assay type: cell-based
T2 sequence (whole entry): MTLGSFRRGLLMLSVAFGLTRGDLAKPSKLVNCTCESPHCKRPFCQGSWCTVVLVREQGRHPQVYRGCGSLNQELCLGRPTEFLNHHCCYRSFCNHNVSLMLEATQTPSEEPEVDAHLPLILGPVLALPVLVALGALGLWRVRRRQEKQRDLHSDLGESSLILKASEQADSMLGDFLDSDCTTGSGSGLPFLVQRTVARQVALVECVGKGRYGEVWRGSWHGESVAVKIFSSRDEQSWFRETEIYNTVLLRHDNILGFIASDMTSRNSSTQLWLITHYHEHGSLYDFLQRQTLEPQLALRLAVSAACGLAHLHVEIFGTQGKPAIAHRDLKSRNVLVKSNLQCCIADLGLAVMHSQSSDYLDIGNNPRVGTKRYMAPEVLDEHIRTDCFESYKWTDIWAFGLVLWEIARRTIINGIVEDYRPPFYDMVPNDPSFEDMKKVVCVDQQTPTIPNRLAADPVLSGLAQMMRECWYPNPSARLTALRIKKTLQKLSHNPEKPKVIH

[3] = biological target: Vascular endothelial growth factor receptor 3 (Homo sapiens, UniProt P35916); test: Inhibition of human FLT4 using poly[Glu:Tyr] (4:1) as substrate in presence of [gamma-33P]-ATP by scintillation counting method
Sequence of Vascular endothelial growth factor receptor 3 (P35916 whole entry): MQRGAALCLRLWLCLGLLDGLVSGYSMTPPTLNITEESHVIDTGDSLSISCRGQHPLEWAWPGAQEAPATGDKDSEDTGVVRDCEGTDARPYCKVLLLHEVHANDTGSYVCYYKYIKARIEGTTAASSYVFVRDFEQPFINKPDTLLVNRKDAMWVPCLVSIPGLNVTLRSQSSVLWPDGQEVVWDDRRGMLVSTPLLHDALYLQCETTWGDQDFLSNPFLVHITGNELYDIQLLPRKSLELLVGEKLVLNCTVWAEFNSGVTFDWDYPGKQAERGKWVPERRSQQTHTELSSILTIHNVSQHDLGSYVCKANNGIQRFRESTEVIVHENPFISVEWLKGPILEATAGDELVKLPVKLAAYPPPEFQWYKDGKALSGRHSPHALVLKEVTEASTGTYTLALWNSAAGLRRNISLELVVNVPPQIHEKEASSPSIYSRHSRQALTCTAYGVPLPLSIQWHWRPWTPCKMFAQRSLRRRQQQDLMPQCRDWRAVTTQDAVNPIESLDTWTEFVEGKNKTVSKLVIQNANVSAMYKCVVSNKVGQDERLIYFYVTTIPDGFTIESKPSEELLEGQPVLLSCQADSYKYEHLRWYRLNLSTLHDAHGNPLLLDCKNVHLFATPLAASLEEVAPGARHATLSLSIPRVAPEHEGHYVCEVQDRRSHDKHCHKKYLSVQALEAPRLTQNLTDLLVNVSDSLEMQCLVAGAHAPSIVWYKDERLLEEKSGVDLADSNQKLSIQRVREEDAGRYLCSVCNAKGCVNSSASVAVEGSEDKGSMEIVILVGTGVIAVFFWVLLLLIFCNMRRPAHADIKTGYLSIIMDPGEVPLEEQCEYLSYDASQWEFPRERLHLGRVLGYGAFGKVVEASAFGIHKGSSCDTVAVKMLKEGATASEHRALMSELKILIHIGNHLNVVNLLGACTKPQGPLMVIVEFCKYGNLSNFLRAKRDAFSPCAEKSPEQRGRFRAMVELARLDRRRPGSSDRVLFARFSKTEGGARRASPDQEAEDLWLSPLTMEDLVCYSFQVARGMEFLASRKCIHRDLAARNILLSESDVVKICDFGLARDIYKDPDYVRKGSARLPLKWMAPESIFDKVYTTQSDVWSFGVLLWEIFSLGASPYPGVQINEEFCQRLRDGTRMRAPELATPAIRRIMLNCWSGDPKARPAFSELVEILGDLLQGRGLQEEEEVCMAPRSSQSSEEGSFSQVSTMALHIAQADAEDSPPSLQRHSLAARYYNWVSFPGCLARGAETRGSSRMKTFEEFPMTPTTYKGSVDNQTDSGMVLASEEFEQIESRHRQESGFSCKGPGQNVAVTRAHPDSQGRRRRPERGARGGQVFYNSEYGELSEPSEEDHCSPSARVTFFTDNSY

[4] = biological target: Vascular endothelial growth factor receptor 2 (Homo sapiens, UniProt P35968); test: Inhibition of human KDR using poly[Glu:Tyr] (4:1) as substrate in presence of [gamma-33P]-ATP by scintillation counting method
[5] = biological target: Dual specificity mitogen-activated protein kinase kinase 6 (Homo sapiens, UniProt P52564); test: Inhibition of human MKK6 using p38a as substrate in presence of [gamma-33P]-ATP by scintillation counting method
[6] = biological target: Dual specificity mitogen-activated protein kinase kinase 2 (Homo sapiens, UniProt P36507); test: Inhibition of human MEK2 using ERK2 as substrate in presence of [gamma-33P]-ATP by scintillation counting method
[7] = biological target: Receptor-type tyrosine-protein kinase FLT3 (Homo sapiens, UniProt P36888); test: Inhibition of human FLT3 using EAIYAAPFAKKK peptide as substrate in presence of [gamma-33P]-ATP by scintillation counting method
[8] = biological target: Dual specificity mitogen-activated protein kinase kinase 6 (Homo sapiens) (UniProt P52564); test: Inhibition of human MKK6 at 1 uM using p38a as substrate in presence of [gamma-33P]-ATP by scintillation counting method relative to control
[9] = biological target: T2, Activin receptor type-1-like (Mus musculus); test: Inhibition of BMP9-stimulated ALK1 in mouse C2C12 cells assessed as reduction in Smad1/5 phosphorylation at 0.1 to 10 uM pretreated for 2 hrs followed by BMP9-stimulation after 30 mins by western blot analysis; assay type: cell-based
[10] = biological target: T2, Activin receptor type-1-like (Mus musculus); test: Inhibition of BMP9-stimulated ALK1 in mouse C2C12 cells assessed as decrease in p38 phosphorylation at 0.1 to 10 uM pretreated for 2 hrs followed by BMP9-stimulation after 30 mins by western blot analysis; assay type: cell-based
[11] = biological target: T2, Activin receptor type-1-like (Mus musculus); test: Inhibition of BMP9-stimulated ALK1 in mouse C2C12 cells assessed as decrease in ERK1/2 phosphorylation at 0.1 to 10 uM pretreated for 2 hrs followed by BMP9-stimulation after 30 mins by western blot analysis; assay type: cell-based
[12] = biological target: T2, Activin receptor type-1-like (Mus musculus); test: Inhibition of BMP9-stimulated ALK1 in mouse C2C12 cells assessed as decrease in MEK phosphorylation at 0.1 to 10 uM pretreated for 2 hrs followed by BMP9-stimulation after 30 mins by western blot analysis; assay type: cell-based
[13] = biological target: T3, TGF-beta receptor type-1 (Mus musculus, UniProt Q64729); test: Inhibition of ALK5 in mouse C2C12 cells assessed as decrease in TGFbeta1-induced Smad2/3 phosphorylation at 0.1 to 10 uM by Western blot method; assay type: cell-based
T3 sequence (Q64729 whole entry): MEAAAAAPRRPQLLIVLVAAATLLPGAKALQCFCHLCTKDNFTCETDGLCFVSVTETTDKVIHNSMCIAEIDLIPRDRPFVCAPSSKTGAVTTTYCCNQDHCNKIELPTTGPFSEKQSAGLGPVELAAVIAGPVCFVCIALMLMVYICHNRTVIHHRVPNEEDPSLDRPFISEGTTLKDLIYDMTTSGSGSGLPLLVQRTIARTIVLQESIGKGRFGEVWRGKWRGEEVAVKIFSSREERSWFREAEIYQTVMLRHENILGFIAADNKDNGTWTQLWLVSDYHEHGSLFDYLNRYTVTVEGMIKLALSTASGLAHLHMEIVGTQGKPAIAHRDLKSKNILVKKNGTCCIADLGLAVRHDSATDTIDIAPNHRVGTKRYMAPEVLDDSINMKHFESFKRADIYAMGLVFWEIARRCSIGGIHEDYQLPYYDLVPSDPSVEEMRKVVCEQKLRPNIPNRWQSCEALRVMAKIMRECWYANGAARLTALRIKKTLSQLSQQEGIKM

[14] = biological target: T3, TGF-beta receptor type-1; test: Inhibition of ALK5 in mouse C2C12 assessed as decrease in TGFbeta1-induced Smad1/5 phosphorylation at 0.1 to 10 uM by Western blot method
[15] = biological target: Mitogen-activated protein kinase kinase kinase 7 (Homo sapiens) (UniProt O43318); conditions: 1 uM
Sequence of Mitogen-activated protein kinase kinase kinase 7 (Homo sapiens) (O43318 whole entry): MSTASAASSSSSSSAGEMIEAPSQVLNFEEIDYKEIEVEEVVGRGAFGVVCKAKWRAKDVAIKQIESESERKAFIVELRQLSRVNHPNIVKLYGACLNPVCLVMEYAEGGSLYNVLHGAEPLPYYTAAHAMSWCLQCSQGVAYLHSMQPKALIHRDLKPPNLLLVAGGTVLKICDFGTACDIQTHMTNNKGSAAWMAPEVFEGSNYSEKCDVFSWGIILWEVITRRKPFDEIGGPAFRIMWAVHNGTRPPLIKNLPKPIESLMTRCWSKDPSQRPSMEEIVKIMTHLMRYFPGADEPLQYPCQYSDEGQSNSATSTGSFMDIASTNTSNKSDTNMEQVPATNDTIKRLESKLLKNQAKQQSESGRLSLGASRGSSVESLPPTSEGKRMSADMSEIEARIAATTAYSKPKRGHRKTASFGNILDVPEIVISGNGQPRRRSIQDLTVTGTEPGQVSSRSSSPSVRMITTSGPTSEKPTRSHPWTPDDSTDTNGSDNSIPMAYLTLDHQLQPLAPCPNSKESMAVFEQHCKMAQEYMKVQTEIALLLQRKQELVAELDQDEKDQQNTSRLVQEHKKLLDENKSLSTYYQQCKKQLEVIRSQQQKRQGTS
Description: Inhibition of human TAK1 at 1 uM using casein as substrate in presence of [gamma-33P]-ATP by scintillation counting method relative to control

[16] = biological target: MAP kinase-interacting serine/threonine-protein kinase 2 (Homo sapiens) (UniProt Q9HBH9); conditions: 1 uM
Sequence of MAP kinase-interacting serine/threonine-protein kinase 2 (Homo sapiens) (Q9HBH9 whole entry, looked up): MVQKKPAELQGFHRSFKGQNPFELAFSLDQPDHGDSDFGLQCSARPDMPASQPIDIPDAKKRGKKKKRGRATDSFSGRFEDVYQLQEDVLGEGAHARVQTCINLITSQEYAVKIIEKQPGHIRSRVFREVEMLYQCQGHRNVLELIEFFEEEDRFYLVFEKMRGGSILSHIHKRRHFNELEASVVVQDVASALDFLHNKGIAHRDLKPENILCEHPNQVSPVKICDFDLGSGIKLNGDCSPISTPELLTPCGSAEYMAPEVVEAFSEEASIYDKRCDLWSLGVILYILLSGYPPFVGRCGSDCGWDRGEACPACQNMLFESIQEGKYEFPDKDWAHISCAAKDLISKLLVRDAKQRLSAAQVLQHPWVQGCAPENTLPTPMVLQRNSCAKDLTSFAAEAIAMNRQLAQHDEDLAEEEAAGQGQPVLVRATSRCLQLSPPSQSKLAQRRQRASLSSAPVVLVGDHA
Description: Inhibition of human MNK2 at 1 uM using myelin basic protein as substrate in presence of [gamma-33P]-ATP by scintillation counting method relative to control

[17] = biological target: MAP kinase-interacting serine/threonine-protein kinase 1 (Homo sapiens) (UniProt Q9BUB5); conditions: 1 uM
Sequence of MAP kinase-interacting serine/threonine-protein kinase 1 (Homo sapiens) (Q9BUB5 whole entry, looked up): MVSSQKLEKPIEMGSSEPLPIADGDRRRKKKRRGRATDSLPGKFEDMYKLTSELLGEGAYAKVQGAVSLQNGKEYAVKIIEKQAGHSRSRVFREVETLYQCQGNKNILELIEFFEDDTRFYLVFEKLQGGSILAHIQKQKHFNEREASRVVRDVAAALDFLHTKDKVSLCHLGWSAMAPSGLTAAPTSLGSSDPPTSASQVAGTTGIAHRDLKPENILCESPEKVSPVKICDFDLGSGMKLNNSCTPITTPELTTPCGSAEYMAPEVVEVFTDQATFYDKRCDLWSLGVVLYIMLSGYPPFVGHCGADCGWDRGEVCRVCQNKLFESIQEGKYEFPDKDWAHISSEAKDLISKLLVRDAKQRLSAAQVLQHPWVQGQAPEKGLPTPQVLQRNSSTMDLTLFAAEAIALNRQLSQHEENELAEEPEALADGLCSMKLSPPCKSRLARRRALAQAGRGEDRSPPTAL
Description: Inhibition of human MNK1 at 1 uM using myelin basic protein as substrate in presence of [gamma-33P]-ATP by scintillation counting method relative to control

[18] = biological target: Mitogen-activated protein kinase kinase kinase 20 (Homo sapiens) (UniProt Q9NYL2); conditions: 1 uM
Sequence of Mitogen-activated protein kinase kinase kinase 20 (Homo sapiens) (Q9NYL2 2-800 limits assumed): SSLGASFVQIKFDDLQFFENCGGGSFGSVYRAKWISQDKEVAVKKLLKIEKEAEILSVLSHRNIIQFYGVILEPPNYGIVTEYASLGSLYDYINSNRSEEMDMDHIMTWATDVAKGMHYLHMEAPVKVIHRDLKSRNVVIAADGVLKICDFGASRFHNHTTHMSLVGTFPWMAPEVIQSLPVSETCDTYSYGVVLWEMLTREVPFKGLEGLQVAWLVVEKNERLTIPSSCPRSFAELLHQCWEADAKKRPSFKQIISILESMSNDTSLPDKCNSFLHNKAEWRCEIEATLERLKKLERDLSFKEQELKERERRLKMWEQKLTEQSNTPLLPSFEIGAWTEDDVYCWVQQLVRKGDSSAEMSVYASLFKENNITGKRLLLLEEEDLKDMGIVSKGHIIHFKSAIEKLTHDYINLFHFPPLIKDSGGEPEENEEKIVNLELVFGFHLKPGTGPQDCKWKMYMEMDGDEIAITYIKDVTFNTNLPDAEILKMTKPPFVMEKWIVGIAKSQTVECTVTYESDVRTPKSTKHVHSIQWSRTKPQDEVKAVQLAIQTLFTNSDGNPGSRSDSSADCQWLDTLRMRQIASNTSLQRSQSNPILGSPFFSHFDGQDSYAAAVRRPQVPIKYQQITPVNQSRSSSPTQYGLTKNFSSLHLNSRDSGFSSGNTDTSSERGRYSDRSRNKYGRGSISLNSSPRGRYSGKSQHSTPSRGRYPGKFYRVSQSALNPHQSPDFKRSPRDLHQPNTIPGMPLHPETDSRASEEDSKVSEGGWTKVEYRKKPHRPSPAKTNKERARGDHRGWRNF
Description: Inhibition of human ZAK at 1 uM using myelin basic protein as substrate in presence of [gamma-33P]-ATP by scintillation counting method relative to control

[19] = biological target: TGF-beta receptor type-2 (Homo sapiens) (UniProt P37173); conditions: 1 uM
Sequence of TGF-beta receptor type-2 (Homo sapiens) (P37173 whole entry): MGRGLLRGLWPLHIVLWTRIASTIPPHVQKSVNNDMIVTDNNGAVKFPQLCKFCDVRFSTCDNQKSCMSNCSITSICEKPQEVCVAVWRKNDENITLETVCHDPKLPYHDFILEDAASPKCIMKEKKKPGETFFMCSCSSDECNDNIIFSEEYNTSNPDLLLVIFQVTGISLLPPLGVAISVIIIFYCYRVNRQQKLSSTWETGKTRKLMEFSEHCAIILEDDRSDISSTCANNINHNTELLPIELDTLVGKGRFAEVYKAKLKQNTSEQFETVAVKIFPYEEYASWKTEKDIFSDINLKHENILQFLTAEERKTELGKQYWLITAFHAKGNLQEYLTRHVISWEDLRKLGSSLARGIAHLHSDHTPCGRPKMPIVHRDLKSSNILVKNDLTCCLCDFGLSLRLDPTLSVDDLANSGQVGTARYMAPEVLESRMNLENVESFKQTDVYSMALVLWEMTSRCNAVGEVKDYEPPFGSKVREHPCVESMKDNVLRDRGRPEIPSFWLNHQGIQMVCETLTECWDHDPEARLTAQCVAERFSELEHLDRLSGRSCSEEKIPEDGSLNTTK
Description: Inhibition of human TGFbetaR2 at 1 uM using myelin basic protein as substrate in presence of [gamma-33P]-ATP by scintillation counting method relative to control

[20] = biological target: Dual specificity mitogen-activated protein kinase kinase 4 (Homo sapiens) (UniProt P45985); conditions: 1 uM
Description: Inhibition of human MKK4 at 1 uM using JNK1 as substrate in presence of [gamma-33P]-ATP by scintillation counting method relative to control

[21] = biological target: T1, Activin receptor type-1-like; conditions: 0.1 to 10 uM
Description: Inhibition of ALK1 in human A375 cells assessed as decrease in MEK1/2 phosphorylation at 0.1 to 10 uM by western blot analysis

## C=C1CCC[C@H](C)OC(=O)c2c(O)cc(OC)cc2CCC[C@H](O)[C@@H]1O
[1]
  IC50: 1260 nM
[2]
  inhibition: 70 to 80%

## COc1cc(O)c2c(c1)CCC[C@H](O)[C@H](O)C(=O)/C=C\C[C@H](C)OC2=O
[3]
  IC50: 1.13 nM
[4]
  IC50: 6.34 nM
[5]
  IC50: 388 nM
[6]
  IC50: 8.16 nM
[7]
  IC50: 1.59 nM
[1]
  IC50: 125 nM
[8]
  inhibition: > 80%
[9]
  inhibition: Active
[10]
  inhibition: Active
[11]
  inhibition: Active
[12]
  inhibition: Active
[13]
  inhibition (INH): Active
[14]
  inhibition (INH): Active
[15]
  inhibition: > 80%
[16]
  inhibition: > 80%
[17]
  inhibition: > 80%
[18]
  inhibition: > 80%
[19]
  inhibition: > 80%
[20]
  inhibition: > 80%
[21]
  inhibition: Active

## COc1cc(O)c2c(c1)CCC[C@H](O)[C@H](O)[C@@H](O)CCC[C@H](C)OC2=O
[1]
  IC50: 770 nM
[2]
  inhibition: 70 to 80%
